Results as given in patent publication US20030195212A1, “Novel melanocortin receptor agonists and antagonists” (priority 2000, published 2003).

Key:
human MC4 receptor [1] = biological target: T1, human MC4 receptor (Homo sapiens, UniProt P32245); experiment: cAMP assay, MC4 receptor (transfected Sf9 or COS cells); type: cell-based; conditions: 20 minutes at +37° C.
T1 construct: expressed in transfected cells; host or cells: Sf9 insect cells or COS cells
Method: (§1) Test 3. cAMP Assay p The stimulation of cAMP was carried out essentially as described by Schiöth et al., Br. J. Pharmacol. 1998; 124; 75-82.
(§2) Essentially, the effects of the compounds were tested […] for their ability to stimulate the production of cAMP. The cells used were the same ones that were used for the binding assays (see above), i.e. for the MC1 receptor mouse melanoma B16 cells were used and for the MC3, MC4 and MC5 receptors, Sf9 or COS cells, transfected with the respective human receptors.
(§3) Cyclic AMP was stimulated by the addition of the compounds at different concentrations in the presence of a phosphodiesterase inhibitor, during a period of 20 minutes at +37° C. cAMP was extracted with PCA, neutralised with KOH and the mixture was then centrifuged.
(§4) The concentration of cAMP was determined using a binding assay comprising binding protein (from bovine adrenals). Tritiated cAMP, used as tracer, and extracts (from above) in different dilutions were incubated at +4° C. for 120-150 minutes. The cAMP in the unknown samples displaced the labelled cAMP from binding to the binding protein. The binding protein-cAMP/tracer complex was harvested using a filter technique and the filters were counted using a beta-counter. The concentrations of cAMP in the unknown extracts were calculated using a standard curve of known concentrations.

MC1 receptor [2] = biological target: T2, MC1 receptor (Mus musculus, UniProt Q01727); experiment: cAMP assay, MC1 receptor (mouse melanoma B16 cells); type: cell-based; conditions: 20 minutes at +37° C.
T2 construct: B16 mouse melanoma cells were used, which endogenously express the (mouse) MC1 receptor; endogenous in cells; host or cells: B16 mouse melanoma cells
T2 sequence (Q01727 whole entry): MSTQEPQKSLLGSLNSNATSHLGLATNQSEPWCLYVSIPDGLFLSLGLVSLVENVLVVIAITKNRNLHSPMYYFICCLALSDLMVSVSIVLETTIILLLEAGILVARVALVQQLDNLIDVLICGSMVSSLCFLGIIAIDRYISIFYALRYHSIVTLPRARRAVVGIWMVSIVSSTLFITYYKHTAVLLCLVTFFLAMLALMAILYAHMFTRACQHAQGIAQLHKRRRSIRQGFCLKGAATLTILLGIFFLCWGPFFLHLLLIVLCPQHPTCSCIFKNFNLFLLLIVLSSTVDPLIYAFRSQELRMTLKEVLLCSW
Method: as §1, §2, §3, §4

human MC5 receptor [3] = biological target: T3, human MC5 receptor (Homo sapiens, UniProt P33032); experiment: cAMP assay, MC5 receptor (transfected Sf9 or COS cells); type: cell-based; conditions: 20 minutes at +37° C.
T3 construct: expressed in transfected cells; host or cells: Sf9 insect cells or COS cells
T3 sequence (P33032 whole entry): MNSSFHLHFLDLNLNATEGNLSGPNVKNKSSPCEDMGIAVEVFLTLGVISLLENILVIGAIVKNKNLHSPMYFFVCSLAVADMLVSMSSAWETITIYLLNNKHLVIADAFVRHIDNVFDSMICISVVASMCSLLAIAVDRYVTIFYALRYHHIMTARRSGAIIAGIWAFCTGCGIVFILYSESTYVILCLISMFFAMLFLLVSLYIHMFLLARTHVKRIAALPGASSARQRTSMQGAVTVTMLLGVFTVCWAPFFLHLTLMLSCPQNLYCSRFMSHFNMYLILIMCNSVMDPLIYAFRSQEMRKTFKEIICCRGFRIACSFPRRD
Method: as §1, §2, §3, §4

human MC4 receptor [4] = biological target: T1, human MC4 receptor; experiment: Affinity for the MC4-receptor, displacement of I125-NDP-MSH; type: binding; conditions: Sf9 or COS cells transfected with human MC4, I125-NDP-MSH ligand; read-out: Affinity for MC-receptors Ki MC4
Method: (§5) Test 2. Affinity for the MC3-Receptors, the MC4-Receptors and the MC5-Receptors
(§6) The binding assays were carried out essentially as described by Szardenings et al., J. Biol. Chem. 1997; 272; 27943-27948 and Schiöth et al., FEBS Lett. 1997; 410; 223-228 using I^125-NDP-α-MSH as ligand.
(§7) Essentially, the affinity of the compounds to the different receptors were determined using either insect cells (Sf9) or COS cells, which were transfected with recombinant human MC3, MC4 or MC5 receptors. For the determination of the affinity to the MC1 receptor, B16 mouse melanoma cells were used, which endogenously express the (mouse) MC1 receptor.
(§8) The compounds were tested at different concentrations for their ability to displace I^125-labelled NDP-MSH from the respective receptor. Incubation was performed in 96-well plates using 50,000 cells/well (Sf9 or COS cells) up to 200,000 cells/well (mouse melanoma cells).
(§9) The test compound or standard (NDP-MSH) was added in an appropriate concentration (generally between 10^−4 M and 10^−12 M) together with labelled tracer (approx. 50,000 cpm/well) and incubation was performed for 2 hours (at room temperature for Sf 9 cells and at +37° C. for COS cells and mouse melanoma cells).
(§10) After the incubation, the cells were washed twice to get rid of excess tracer and compound, and the cells were lysed with 0.1M NaOH. The lysate was counted in a gamma-counter, binding was calculated and the affinity then determined.

MC1 receptor [5] = biological target: T2, MC1 receptor; experiment: Affinity for the MC1-receptor, displacement of I125-NDP-MSH; type: binding; conditions: B16 mouse melanoma cells, I125-NDP-MSH ligand; read-out: Affinity for MC-receptors Ki MC1
Method: Test 1. Affinity for the MC1-Receptor
The binding assay was carried out essentially as described by Lunec et al Melanoma Res 1992; 2; 5-12 using I^125α-NDP-MSH as ligand.
as §7, §8, §9, §10

human MC5 receptor [6] = biological target: T3, human MC5 receptor; experiment: Affinity for the MC5-receptor, displacement of I125-NDP-MSH; type: binding; conditions: Sf9 or COS cells transfected with human MC5, I125-NDP-MSH ligand; read-out: Affinity for MC-receptors Ki MC5
Method: as §5, §6, §7, §8, §9, §10

human MC3 receptor [7] = biological target: T4, human MC3 receptor (Homo sapiens, UniProt P41968); experiment: Affinity for the MC3-receptor, displacement of I125-NDP-MSH; type: binding; conditions: Sf9 or COS cells transfected with human MC3, I125-NDP-MSH ligand; for Ki: read-out: Affinity for MC-receptors Ki MC3
T4 construct: expressed in transfected cells; host or cells: Sf9 insect cells or COS cells
T4 sequence (P41968 whole entry): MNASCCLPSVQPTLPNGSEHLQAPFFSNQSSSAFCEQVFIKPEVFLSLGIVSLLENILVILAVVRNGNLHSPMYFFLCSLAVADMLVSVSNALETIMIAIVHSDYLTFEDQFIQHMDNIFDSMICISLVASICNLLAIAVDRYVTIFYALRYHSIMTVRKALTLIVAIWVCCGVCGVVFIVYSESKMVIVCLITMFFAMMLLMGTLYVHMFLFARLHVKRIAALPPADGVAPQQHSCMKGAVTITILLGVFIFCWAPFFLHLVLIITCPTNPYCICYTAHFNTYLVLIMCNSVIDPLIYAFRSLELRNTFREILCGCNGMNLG
Method: as §5, §6, §7, §8, §9, §10

human MC3 receptor [8] = biological target: T4, human MC3 receptor; experiment: cAMP assay, MC3 receptor (transfected Sf9 or COS cells); type: cell-based; conditions: 20 minutes at +37° C.
Method: as §1, §2, §3, §4

Female BALB/c mice = experiment: Anti-inflammatory effects: total number of white blood cells in DNFB model; type: in vivo, mouse; conditions: i.p., 0.05-0.75 mg/kg, blood collected 24 hours after last challenge
Method: Anti-Inflammatory Effects
Female BALB/c mice (weight 20-22 g) were sensitized by treatment of the shaved abdomen with 30 μl of 0.5% 2,4-dinitrofluorobenzene (DNFB). After 4 days they were challenged with 10 μl of 0.3% DNFB to the paw. The unchallenged mice paws served as a control. Twenty-four hours after the last challenge, the difference in paws weight were determined as an indicator of the inflammation (paw oedema).
Mice were treated as the control but were additionally injected i.p. with various doses (0.05, 0.15 or 0.25, 0.375, 0.5 and 0.75 mg/kg) of each compounds two hours before sensitization (day 0) and the same dose was administered repeatedly after sensitization during four consecutive days. The paw edema inhibition as described above. Groups containing at least 10 mice each were used for all experiments.
Blood analysis was carried out using the QBC® Autoread™ Plus & QBC® Accutube System (Becton Dickinson). In all cases blood samples were collected twenty-four hours after the last challenge.

[9] = tested on: Sprague-Dawley, male rats; experiment: In vivo effects on body weight gain, nocturnal protocol, icv; parameters: species or system rat; conditions: icv, 1, 4 and 10 nmoles, recorded at 24 hours
Source text: (§11) In Vivo Effects on Food Intake
(§12) Compounds have been tested for their effects on food intake and body weight in rats.
(§13) In order to investigate the agonistic effect, i.e. decrease in food intake, of compounds, the nocturnal protocol was used. Sprague-Dawley, male rats were used, which were cannulated intracerebroventricularly. Stainless steel guide cannulae were placed in the lateral ventricle and fixed in the skull. Animals were acclimatized for a week before the experiments took place. After the experiments were done, the rats were killed and placement of the cannulae were checked.
(§14) Rats were cannulated as described above. They were used without prior starvation, and compounds were administered at 5 pm in a total volume of 5 μl. Doses of Compound 2:4 used were 1, 4 and 10 nmoles. Food intake was measured at 3, 15 and 24 hours after dosing, and body weight was recorded at 24 hours. For comparison, the well known MC4 receptor agonist, Melanotan II (MTII) was used, at a dose of 1 nmole.

[10] = tested on: Sprague-Dawley, male rats; experiment: In vivo effects on food intake, nocturnal protocol, icv; parameters: species or system rat
Source text: as §11, §12, §13, §14

T1 sequence (P32245 whole entry): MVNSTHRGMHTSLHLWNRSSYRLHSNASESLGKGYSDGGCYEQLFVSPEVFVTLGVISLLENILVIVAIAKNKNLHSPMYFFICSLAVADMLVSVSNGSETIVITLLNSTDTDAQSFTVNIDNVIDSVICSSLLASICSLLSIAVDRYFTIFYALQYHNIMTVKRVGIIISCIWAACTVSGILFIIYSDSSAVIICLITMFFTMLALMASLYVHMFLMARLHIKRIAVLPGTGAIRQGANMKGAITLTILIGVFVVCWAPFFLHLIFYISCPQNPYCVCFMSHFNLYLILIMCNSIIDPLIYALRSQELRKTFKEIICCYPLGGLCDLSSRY

Row | Influence on cAMP MC4c (human MC4 receptor [1]) | Influence on cAMP MC1c (MC1 receptor [2]) | Influence on cAMP MC5c (human MC5 receptor [3]) | Ki (human MC4 receptor [4]) [µM] | Ki (MC1 receptor [5]) [µM] | Ki (human MC5 receptor [6]) [µM] | Ki (human MC3 receptor [7]) [µM] | Affinity for MC-receptors Ki MC3 (human MC3 receptor [7]) | Influence on cAMP MC3c (human MC3 receptor [8]) | Structure (SMILES) | white blood cell count (Female BALB/c mice) | body weight gain [9] | effects at the highest dose compared with MTII ([10]; icv, 10 nmoles versus MTII 1 nmole, food intake and body weight gain) | food intake ([10]; icv, 1, 4 and 10 nmoles, measured at 3, 15 and 24 hours after dosing)
1 | 99 percentage of the baseline | 375 percentage of the baseline | 76 percentage of the baseline | 25.2 | 12.7 | 30.8 | 37.1 |  |  | NCCCNC(=O)C(Cc1c[nH]c2ccccc12)NC(=O)Cc1cccc2ccccc12 (centres unmarked) [1:6, N-(3-Amino-propyl)-3-(1H-indol-3-yl)-2-(2-naphthalen-1-yl-acetylamino)-propionamide] |  |  |  | 
2 | 61 percentage of the baseline | 354 percentage of the baseline | 117 percentage of the baseline | 20.8 | 2.7 | 17.9 |  | nb |  | CCn1c2ccccc2c2cc(NC(=O)C(Cc3c[nH]c4ccccc34)NC(=O)CCCNC(=N)N)ccc21 (centres unmarked) [2:6, N-[1-(9-Ethyl-9H-carbazol-3-ylcarbamoyl)-2-(1H-indol-3-yl)-ethyl]-4-guanidino-butyramide] |  |  |  | 
3 | 237 percentage of the baseline | 162 percentage of the baseline | 164 percentage of the baseline |  |  |  |  |  | 116 percentage of the baseline | CCn1c2ccccc2c2cc(NC(=O)C(Cc3c[nH]c4ccccc34)NC(=O)CCN)ccc21 (centres unmarked) [2:14, 2-(3-Amino-propionylamino)-N-(9-ethyl-9H-carbazol-3-yl)-3-(1H-indol-3-yl)-propionamide] |  |  |  | 
4 |  |  |  | 5.6 | 1.3 | 35.6 | 23.5 |  |  | N=C(N)NCCCCN(Cc1ccccc1)C(=O)C(Cc1c[nH]c2ccccc12)NC(=O)CCCc1ccccc1 (centres unmarked) [Compound 1:15, N-[1-[Benzyl-(4-guanidino-butyl)-carbamoyl]-2-(1H-indol-3-yl)-ethyl]-4-phenyl-butyramide] | clearly dose dependent |  |  | 
5 |  |  |  | 3.1 | 0.6 | 43.7 | 35.3 |  |  | N=C(N)NCCCCN(Cc1ccccc1)C(=O)C(Cc1c[nH]c2ccccc12)NC(=O)Cc1ccc2ccccc2c1 (centres unmarked) [Compound 1:17, N-Benzyl-N-(4-guanidino-butyl)-3-(1H-indol-3-yl)-2-(2-naphthalen-2-yl-acetylamino)-propionamide] | clearly dose dependent |  |  | 
6 |  |  |  |  |  |  |  |  |  | N=C(N)NCCCC(=O)NC(Cc1c[nH]c2ccccc12)C(=O)NCCc1c[nH]c2ccccc12 (centres unmarked) [Compound 2:4, 4-Guanidino-N-{2-(1H-indol-3-yl)-1-[2-(1H-indol-3-yl)-ethylcarbamoyl]-ethyl}-butyramide] |  | dose dependent and significantly different from vehicle treated animals at the highest dose tested | in the same range as that observed with MTII | the intermediate and the highest dose is significantly different from vehicle treated animals
7 | 79 percentage of the baseline | 315 percentage of the baseline | 154 percentage of the baseline | 18.1 | 2.6 | 25.1 |  | nb |  | CCn1c2ccccc2c2cc(NC(=O)C(Cc3c[nH]c4ccccc34)NC(=O)CCCN)ccc21 (centres unmarked) [Compound 2:7, 4-Amino-N-[1-(9-ethyl-9H-carbazol-3-ylcarbamoyl)-2-(1H-indol-3-yI)-ethyl]-butyramide] |  |  |  | 
